Test results taken from US8802439B2, “Methods for enhancing infectivity of retroviruses” (priority 2009, dated 2014).
Entries after “also recorded” stand apart in the source; their conditions may differ.

Test system: HCV
Test: HCV infectivity titer of supernatants from persistently infected HUH-7 cells
Type: cell-based
Conditions: PiB 16 μM and 8 μM, 1 hour pre-treatment plus 9 hours at 37° C.
Description: (§1) Cells persistently infected with HCV were treated with vehicle (DMSO), an MTP inhibitor (BMS-200150) capable of inhibiting HCV secretion, or with two doses of PiB (16 μM and 8 μM). After 1 hour of pre-treatment at 37° C., cells were washed with warm PBS and further incubated in normal medium containing the same drugs for an additional 9 hours at 37° C. Cell supernatants containing infectious HCV were collected for infectivity titer determination.
as §1, with “Infection assays for HCV: Persistently” for “Cells persistently”, “cells” for “with HCV”, “inhibitors” for “drugs”, “determination. […] Note that Pin1 is able to block HIV-1 in the HUH-7 cell line used to propagate HCV.” for “determination.”
Persistently infected HUH-7 cells were treated with solvent DMSO (circles), or increasing concentrations of PiB (squares). After 1 hour of pre-treatment cells were washed and further incubated in normal medium containing the same inhibitors for an additional 9 hours at 37° C. Cell supernatants containing infectious HCV were collected for infectivity titer determination.

**Q.** With CCOC(=O)CN1C(=O)c2ccc3c4c(ccc(c24)C1=O)C(=O)N(CC(=O)OCC)C3=O [PiB, diethyl-1,3,6,8-tetrahydro-1,3,6,8-tetraoxobenzo[lmn][3,8]phenanthroline-2,7-diacetate] as the molecule, how does the “infectious HCV in cell supernatants (infectivity titer)” value read?
**A.** does not enhance HCV infectivity; also recorded: does not enhance replication
